Data: patent publication US8030033B2, “Polymorphisms in ABCB1 associated with a lack of clinical response to medicaments” (priority 2004, dated 2011)

How the values were obtained:
[1] = tested on: p-glycoprotein (ABCB1 protein); details: cited from earlier work; for uptake / penetration into the brain of mice dependent on ABCB1 protein: mice with abcb1ab knockout mutation, cited literature; for substrate of p-glycoprotein: from cited literature
[2] = tested on: p-glycoprotein (abcb1a and abcb1b); experiment: Drug concentrations in cerebrum and plasma of abcb1ab (-/-) mice compared to wild-type controls after 11 day subcutaneous administration; details: for differences in plasma levels between abcb1ab (-/-) mutant and wildtype littermates: 11 day continuous sub-cutaneous administration; for fold higher concentration in the brain of abcb1ab (-/-) mutant compared to wildtype animals (cerebrum/plasma ratio): 11 day continuous sub-cutaneous administration via osmotic pumps, male mice; for intracerebral concentration regulated by p-glycoprotein: administration for 11 days, mice lacking abcb1a and abcb1b
Protocol: Venlafaxine and o-desmethylvenlafaxine (d-venlafaxine) was obtained from Wyeth-Pharma GmbH (Münster, Germany). […] Protriptyline was purchased from RBI (Massachusetts, USA). All other chemicals were obtained in the purest grade available from Merck (Darmstadt, Germany).
Male abcb1ab(−/−) mice and FVB/N wildtype mice were housed individually and maintained on a 12:12 h light/dark cycle (lights on at 07:00), with food and water ad libitum. Abcb1ab double knockout mice, originally created by A. Schinkel by sequential gene targeting in 129/Ola E14 embryonic stem cells^28 and backcrossed seven times (N7) to FVB/N from the C57BL/6×129 chimera, and FVB/N wildtype mice were received from Taconic (Germantown, USA; FVB/Tac-[KO]Pgy2 N7). A homozygous colony is maintained at the Max-Planck Institute of Psychiatry on the N7 FVB/N background through intercrossing of homozygous mice.
Experimental and extraction procedures were performed as described before^12,26. […] After 11 days, the mice were anesthetized and sacrificed. The dissected organs were homogenized and a liquid-liquid extraction procedure has been carried out with n-hexan/isoamylalcohol (Table 3) in the first step and phosphoric acid in the second.
HPLC measurements were performed as described before^12,26. A Beckman gradient pump, autoinjector, UV detector and a Merck fluorescence detector, were used for the high-performance liquid chromatography analysis. Separations were made on a reversed phase Luna 5μ C18(2) 250×4.6 mm column (Phenomenex, Torrance, USA), 60° C., mobile phase flow 1 ml/min. A mobile phase gradient with acetonitrile was used for the chromatography analysis (Table 3). The substances were determined by UV absorption and fluorescence at the described wavelength (Table 3).
Statistical analysis was carried out the statistic software SPSS 10.0 for windows (Chicago, Ill.). Significance was tested by one-factorial multivariate analyses of variance (MANOVAs). […] As a nominal level of significance α=0.05 was accepted and corrected (reduced according to the Bonferroni procedure) for all a posteriori tests (univariate F-tests) in order to keep the type I error less than or equal to 0.05.

[3] = Plasma concentration of antidepressant drugs in depressed patients according to rs2235015 genotype; type: in vivo, human; details: weeks 4-6 of treatment; rs2235015 GG homozygotes; SEM=51.6
Protocol: All patients were treated with antidepressant drugs within a few days of admission. The type antidepressant medication was not influence by the participation in the study, but chosen freely by the responsible psychiatrist. For all patients plasma concentration of antidepressant medication was monitored to assure clinically efficient drug levels.
Plasma citalopram, mirtazapine, and paroxetine were extracted with a liquid-liquid extraction procedure and than measured after HPLC with UV absorption and fluorescence.
We used a reversed phase Luna 5μ C18(2) 250×4.6 mm column (Phenomenex, Torrance, USA), 60° C., mobile phase flow 1 ml/min. […] The extraction recovery was >90%, and the intra and inter day variation coefficient was <10%.
To detect any genotype dependent differences in antidepressant dose or plasma level, we used a one-way ANOVA with the genotype of rs2235015 as factor.

Row | Structure (SMILES) | uptake / penetration into the brain of mice dependent on ABCB1 protein [1] | substrate of p-glycoprotein [1] | other results
1 | CN(C)CCCC1(c2ccc(F)cc2)OCc2cc(C#N)ccc21 (stereo not shown) [citalopram] | involved in the uptake |  | 
2 | CN(C)CCC=C1c2ccccc2COc2ccccc21 [doxepin] | enhancement of penetration |  | 
3 | Fc1ccc([C@@H]2CCNC[C@H]2COc2ccc3c(c2)OCO3)cc1 [paroxetine] | enhancement of penetration | identified as a substrate of p-glycoprotein | 
4 | CNCCC(Oc1ccc(C(F)(F)F)cc1)c1ccccc1 (stereo not shown) [fluoxetine] |  | not substrate of p-glycoprotein | 
5 | CNCCC=C1c2ccccc2CCc2ccccc21 [nortriptyline] |  | substrate of p-glycoprotein | 
6 | CN(C)CC(c1ccc(O)cc1)C1(O)CCCCC1 (stereo not drawn) [d-venlafaxine, o-desmethylvenlafaxine] |  |  | differences in plasma levels between abcb1ab (-/-) mutant and wildtype littermates [2]: no differences; fold higher concentration in the brain of abcb1ab (-/-) mutant compared to wildtype animals (cerebrum/plasma ratio) [2]: 4.1 fold; intracerebral concentration regulated by p-glycoprotein [2]: regulated by p-glycoprotein
7 | COc1ccc(C(CN(C)C)C2(O)CCCCC2)cc1 (stereo not shown) [venlafaxine] | enhancement of penetration |  | differences in plasma levels between abcb1ab (-/-) mutant and wildtype littermates [2]: no differences; fold higher concentration in the brain of abcb1ab (-/-) mutant compared to wildtype animals (cerebrum/plasma ratio) [2]: 1.7 fold; intracerebral concentration regulated by p-glycoprotein [2]: regulated by p-glycoprotein; mean plasma level of administered antidepressant [3]: 356.5 ng/mL
8 | CC(CN(C)C)CN1c2ccccc2CCc2ccccc21 (stereo not shown) [trimipramine] | involved in the uptake |  | 
9 | CN1CCN2c3ncccc3Cc3ccccc3C2C1 (stereo not shown) [mirtazapine] |  |  | differences in cerebrum/plasma ratios between abcb1ab (-/-) mutant and wildtype ([2]; mouse, in vivo): no significant differences
